The experiment has as its target Mtb-GAPDH (Mycobacterium tuberculosis, UniProt P9WN83). Nature of the experiment: time- and concentration-dependent inactivation, Kitz-Wilson re-plot. The format is biochemical. As to conditions: read-out: Ki.

From publication PMC3859378 (Archives of biochemistry and biophysics, 2013) come the findings set out here.

Structures are written as SMILES.

Mtb-GAPDH, sequence (P9WN83 whole entry): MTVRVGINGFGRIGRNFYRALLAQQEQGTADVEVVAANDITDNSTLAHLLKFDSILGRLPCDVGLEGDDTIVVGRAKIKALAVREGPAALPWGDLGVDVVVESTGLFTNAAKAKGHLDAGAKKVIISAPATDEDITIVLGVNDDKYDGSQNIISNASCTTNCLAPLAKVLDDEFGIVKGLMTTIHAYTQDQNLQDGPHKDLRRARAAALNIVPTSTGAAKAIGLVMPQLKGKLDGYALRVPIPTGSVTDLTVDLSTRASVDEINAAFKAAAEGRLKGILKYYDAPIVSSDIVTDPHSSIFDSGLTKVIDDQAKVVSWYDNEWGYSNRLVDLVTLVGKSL

In the case of `NC(=O)CI` [IAM, iodoacetamide], the KI (inactivation) came out at 7.8 mM.
